According to US10111877B2, “Modulators of androgen synthesis” (Tangent Reprofiling Limited, priority 2012, dated 2018):
Like-named read-outs stand apart in the source and are kept apart here.

Key:
PC3 cells [1] = test: Cell metabolism inhibition assay (Cell titre Blue) with fatty acids; assay type: cell-based; conditions: for Cellular Metabolic Activity: 100% = undrugged media
Experimental: A cell metabolism inhibition assay was performed to determine the effect of different fatty acids on cellular metabolic rate. The fatty acids tested were α-Linolenic acid, omega 3 fatty acid (ALA), Arachidonic acid, omega 6 fatty acid (AA), 9Z, 11E conjugated Linoleic acid, omega 7 fatty acid (CLA), Docosahexaenoic acid, omega 3 fatty acid (DHA), Eicosapentaenoic acid, omega 3 fatty acid (EPA), Oleic acid, omega 9 fatty acid (OA), Ricinoleic acid, omega 9 hydroxylated fatty acid (RA).
PC3 cells are from a cell line derived from a hormone refractory prostate cancer and are known to overexpress HSD10. PC3 cells were seeded at a density of 4,000 cells per well in a 96 well plate, and incubated at 37° C., 5% CO2 for 48 hours in standard growth media (F12K nutrient media, 7% Fetal Calf Serum, 2 mM L-Glutamine, 45 mg/L ascorbic acid). The media was then removed by pipette and replaced with the appropriate drug treatment as follows: 20 μM, or 40 μM, or 60 μM, or 80 μM, or 100 μM ALA in PC3 treatment media (F12K nutrient media, 125 uM fatty acid free BSA, 2 mM L-Glutamine, 45 mg/L ascorbic acid); 20 μM, or 40 μM, or 60 μM, or 80 μM, or 100 μM AA in PC3 treatment media; 20 μM, or 40 μM, or 60 μM, or 80 μM, or 100 μM CLA in PC3 treatment media; 20 μM, or 40 μM, or 60 μM, or 80 μM, or 100 μM DHA in PC3 treatment media; 20 μM, or 40 μM, or 60 μM, or 80 μM, or 100 μM EPA in PC3 treatment media; 20 μM, or 40 μM, or 60 μM, or 80 μM, or 100 μM OA in PC3 treatment media; and 20 μM, or 40 μM, or 60 μM, or 80 μM, or 100 μM RA in PC3 treatment media. After incubation in the drug treatment for 72 hours at 37° C., 5% CO2, 50 μL Cell titre Blue Assay Reagent was added to each well and the plate return to incubation at 37° C., 5% CO2, for a further 24 hours, at which time the absorbance at 620 nm was recorded. The reduction of absorbance at 620 nm represents a higher metabolic rate, and the data below has been normalized such that 100% represents cells that have been grown in the presence of undrugged media, and 0% represents wells containing no cells.

HSD10 = molecular target: T1, HSD10 (Homo sapiens, UniProt Q99714); test: HSD10 Enzyme Inhibition Assay; assay type: biochemical; conditions: 50 μM drug
T1 construct: endogenous in cells; host or cells: PC3 cells
T1 sequence (Q99714 1-261): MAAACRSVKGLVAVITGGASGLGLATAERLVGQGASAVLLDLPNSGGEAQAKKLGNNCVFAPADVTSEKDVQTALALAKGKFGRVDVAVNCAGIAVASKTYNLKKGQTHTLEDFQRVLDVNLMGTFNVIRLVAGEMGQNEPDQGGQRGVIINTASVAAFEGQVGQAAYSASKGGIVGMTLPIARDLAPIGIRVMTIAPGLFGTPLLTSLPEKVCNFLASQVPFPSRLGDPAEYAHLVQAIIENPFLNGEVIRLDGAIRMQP
Experimental: An HSD10 inhibition assay was performed to determine the effect of several anti-psychotics on enzyme activity.
(§1) PC3 cells are from a cell line derived from a hormone refractory prostate cancer and are known to overexpress HSD10. […] Cells line tests were carried out in presence and absence of testosterone for comparison. After incubation in the drug treatment for 96 hours at 37° C., 5% CO2, the supernatant was removed from all wells of cells, and cells washed with 200 μL PBS.
(§2) After removal of the PBS, cell number was determined using a lysed cell LDH assay (CytoTox 96 Non-radioactive cytotoxicity assay (LDH Assay); Promega, Co., Madison Wis.). Cells were lysed with 0.9% Triton-X in PBS for 2 hours at 37° C., 5% CO2 and 50 μL of this cell lysate was transferred to a fresh 96 well plate. About 50 μL of CytoTox 96 assay reagent was added to the transferred cell lysate and this mixture was incubated at room temperature in the dark for 20 minutes. After the addition of 50 μL stop reagent, the optical absorbance was determined for each incubated mixture at 492 nm. […] The mean and standard error was calculated from at least 3 wells.

PC3 cells [2] = test: Cell growth inhibition, lysed cell LDH assay, prostate cancer cell line; assay type: cell-based; conditions: 96 hours, 100% = no drug treatment (Table 3);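 note: 100% is cells receiving no drug treatment and 0% is wells without cells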
Experimental: To determine whether Risperidone could be effective in inhibiting growth of cancer cells overexpressing HSD10, a lysed cell LDH assay was conducted using cells from a PC3 cell line.
as §1, §2
To determine the optimal concentration of Risperidone and CLA necessary to inhibit cell growth, a lysed cell LDH assay was conducted using various concentration of Risperidone and CLA. PC3 cells were cultured and a lysed cell LDH assay was conducted as described above, except that the various drug treatments evaluated contained either 0 μM, 12.5 μM, 25 μM, or 50 μM Risperidone in combination with 0 μM, 6.25 μM, 12.5 μM, 25 μM, 50 μM, or 100 μM CLA (see Table 3).
as §2, with “PBS from the cell cultures described above,” for “PBS,”, “assay.” for “assay (CytoTox 96 Non-radioactive cytotoxicity assay (LDH Assay); Promega, Co., Madison Wis.).”

PC-3M-luc cells = test: Orthotopic prostate tumor mouse xenograft model; conditions: single drug
Experimental: Immunodeficeint male mice (athymic nude mice) were acclimated to the laboratory for at least one week prior to implantation of tumor. PC-3M-luc cells obtained directly from in vitro culture were then injected into the prostate on Day 0. Animals were divided into six groups of 12 mice each. Primary tumor size and metastases were assessed by bioluminescence measurements on day 6, 13, 20, 27, 34, and 40. On day 7 a five week treatment regime was initiated. Both individual drug and high and low dose combination were examined by administering the drugs twice daily on an individual body weight basis using a dose escalation protocol (Table 7). If tumors grew above a pre-determined level, or mice lost more than 10% of bodyweight, they were culled. The primary tumor was excised, weighed and measured. Individual organs were imaged to assess metastatic burden.

BxPC-3 cells = test: Orthotopic pancreatic tumor mouse xenograft model; assay type: in vivo, mice (athymic nude mice); set-up: key to Pancreatic tumor weight, vs vehicle / Bioluminescence imaging Area, vs vehicle / Bioluminescence imaging Average radiation, vs vehicle / Bioluminescence imaging Total flux, vs vehicle / Bioluminescence imaging Area (day 34), vs vehicle / Bioluminescence imaging Average radiation (day 34), vs vehicle / Bioluminescence imaging Total flux (day 34), vs vehicle / Body weight curves, vs vehicle / Body weight at sacrifice relative to Day −1 body weight, vs vehicle: ***: statistically significant difference with p-value <0.001; **: p-value <0.01; *: p-value <0.05; p-value <0.1; NS: Non-Significant; conditions: 60 mg/kg intraperitoneal every third day
Experimental: Animals were divided into four groups of 10 mice each which underwent the following treatment regime: Group 1, daily oral administration of vehicle comprising 1% (v/v) ethanol, 20% (v/v) PEG 400, 79% (v/v) acid solution and 0.4% (w/v) TWEEN™ 80 at a final pH of 3.1-3.3 (Control); Group 2, intraperitoneal administration of 60 mg/kg of Reference Compound gemcitabine every third day for four rounds followed by one week rest before repeating the dosing; Group 3, daily oral administration of 1 mg/kg of Test Compound VAL401; and Group 4, daily administration of 2 mg/kg Test Compound VAL401. Administration of Test and Reference Compounds began on Day 1 and continued until Day 33. Body weights of the animals were measured two times a week throughout the in-life phase and blood samples for PK analyses were collected from saphenous vein from all animals 2 hours after compound administration at study Day 24. […] The animals were sacrificed at Day 34. At the termination, brain tissues were collected and frozen. Tumors were weighed, measured in three dimensions followed by fixation and embedding in paraffin for possible histopathological assessment. Also spleen, liver and lungs were collected for possible analysis.
Statistical analysis was performed with statistical software R (version 3.1.2). The parameters with multiple measurements in different time points per animal were analyzed using mixed-effects models and model contrasts. […] The obtained p-values values were adjusted for multiple comparisons if necessary. The continuous valued end-point parameters were analyzed using parametric or non-parametric test. If the groups were normally distributed with equal variance, parametric one-way ANOVA followed by Tukey's HSD post hoc test was used. If the assumptions were not fulfilled as such or after data transform (e.g. logarithmic), nonparametric Kruskal-Wallis test followed by Mann-Whitney U test was used.

[3] = read-out: Oxidative Activity Drug Inhibition
[4] = read-out: Reductive Activity Drug Inhibition

CCCCC/C=C\C/C=C\C/C=C\C/C=C\CCCC(=O)O [AA, Arachidonic acid]
Cellular Metabolic Activity (PC3 cells [1]; 20 μM fatty acid): 107 ± 3.9%
Cellular Metabolic Activity (PC3 cells [1]; 40 μM fatty acid): 90 ± 5.6%
Cellular Metabolic Activity (PC3 cells [1]; 60 μM fatty acid): 78 ± 6.4%
Cellular Metabolic Activity (PC3 cells [1]; 80 μM fatty acid): 66 ± 7.2%
Cellular Metabolic Activity (PC3 cells [1]; 100 μM fatty acid): 60 ± 5.9%

CC/C=C\C/C=C\C/C=C\CCCCCCCC(=O)O [ALA, α-Linolenic acid]
Cellular Metabolic Activity (PC3 cells [1]; 20 μM fatty acid): 118 ± 0.5%
Cellular Metabolic Activity (PC3 cells [1]; 40 μM fatty acid): 118 ± 0.9%
Cellular Metabolic Activity (PC3 cells [1]; 60 μM fatty acid): 118 ± 0.2%
Cellular Metabolic Activity (PC3 cells [1]; 80 μM fatty acid): 117 ± 0.9%
Cellular Metabolic Activity (PC3 cells [1]; 100 μM fatty acid): 114 ± 1.2%

CN(C)CCCN1c2ccccc2Sc2ccc(Cl)cc21 [Chlorpromazine]
Oxidative Activity Rate (HSD10): 7.7 µM/min
Reductive Activity Rate (HSD10): 7.2 µM/min
inhibition at 50 µM (HSD10; [3]): 8%
inhibition at 50 µM (HSD10; [4]): 18%

CN(C)CCCN1c2ccccc2CCc2ccc(Cl)cc21 [Clomipramine]
Oxidative Activity Rate (HSD10): 2.3 µM/min
Reductive Activity Rate (HSD10): 7.5 µM/min
inhibition at 50 µM (HSD10; [3]): 73%
inhibition at 50 µM (HSD10; [4]): 15%

CN1CCN(C2=Nc3cc(Cl)ccc3Nc3ccccc32)CC1 [Clozapine]
inhibition at 50 µM (HSD10; [3]): 43%
inhibition at 50 µM (HSD10; [4]): 15%

CC/C=C\C/C=C\C/C=C\C/C=C\C/C=C\C/C=C\CCC(=O)O [DHA, Docosahexaenoic acid]
Cellular Metabolic Activity (PC3 cells [1]; 20 μM fatty acid): 90 ± 8.2%
Cellular Metabolic Activity (PC3 cells [1]; 40 μM fatty acid): 74 ± 7.6%
Cellular Metabolic Activity (PC3 cells [1]; 60 μM fatty acid): 58 ± 5.9%
Cellular Metabolic Activity (PC3 cells [1]; 80 μM fatty acid): 49 ± 7.7%
Cellular Metabolic Activity (PC3 cells [1]; 100 μM fatty acid): 34 ± 7.0%
metabolic inhibition (PC3 cells [1]; 60-100 μM range): 40-65%
Percentage of Lysed Cells (PC3 cells [2]; 12.5 μM of each drug): 109 ± 1.1%
Percentage of Lysed Cells (PC3 cells [2]; 25 μM of each drug): 102 ± 3.5%
Percentage of Lysed Cells (PC3 cells [2]; 50 μM of each drug): 95 ± 3.8%

CN(C)CCOC(c1ccccc1)c1ccccc1 [Diphenhydramine]
Oxidative Activity Rate (HSD10): 8.0 µM/min
Reductive Activity Rate (HSD10): 8.3 µM/min
inhibition at 50 µM (HSD10; [3]): 5%
inhibition at 50 µM (HSD10; [4]): 6%

CC(=O)O[C@@]12CO[C@@H]1C[C@H](O)[C@@]1(C)C(=O)[C@H](O)C3=C(C)[C@@H](OC(=O)[C@H](O)[C@@H](NC(=O)OC(C)(C)C)c4ccccc4)C[C@@](O)([C@@H](OC(=O)c4ccccc4)[C@H]21)C3(C)C [Docetaxel]
body weight throughout the study (PC-3M-luc cells; by Day 40): on a trend of losing weight
Tumor Growth Inhibition (PC-3M-luc cells; calculated on Day 34, dosing per Table 7): 94%
Animal Survival (overall survivorship) (PC-3M-luc cells; day 40, dosing per Table 7): 100%

CC/C=C\C/C=C\C/C=C\C/C=C\C/C=C\CCCC(=O)O [EPA, Eicosapentaenoic acid]
Cellular Metabolic Activity (PC3 cells [1]; 20 μM fatty acid): 94 ± 9.4%
Cellular Metabolic Activity (PC3 cells [1]; 40 μM fatty acid): 71 ± 8.2%
Cellular Metabolic Activity (PC3 cells [1]; 60 μM fatty acid): 67 ± 7.4%
Cellular Metabolic Activity (PC3 cells [1]; 80 μM fatty acid): 49 ± 7.4%
Cellular Metabolic Activity (PC3 cells [1]; 100 μM fatty acid): 37 ± 5.9%
metabolic inhibition (PC3 cells [1]; 80-100 μM range): 50-65%

Nc1ccn([C@@H]2O[C@H](CO)[C@@H](O)C2(F)F)c(=O)n1 [Gemcitabine, gemcitabine]
Bioluminescence imaging Area (day 34), vs vehicle (BxPC-3 cells): NS
Bioluminescence imaging Area, vs vehicle (BxPC-3 cells): NS
Bioluminescence imaging Average radiation (day 34), vs vehicle (BxPC-3 cells): NS
Bioluminescence imaging Average radiation, vs vehicle (BxPC-3 cells): NS
Bioluminescence imaging Total flux (day 34), vs vehicle (BxPC-3 cells): NS
Bioluminescence imaging Total flux, vs vehicle (BxPC-3 cells): NS
Body weight at sacrifice relative to Day −1 body weight, vs vehicle (BxPC-3 cells): NS
Body weight curves, vs vehicle (BxPC-3 cells): NS
Pancreatic tumor volume, vs vehicle (BxPC-3 cells): ↓**
Pancreatic tumor weight, vs vehicle (BxPC-3 cells): NS

CCCCCCCC/C=C\CCCCCCCC(=O)O [OA, Oleic acid]
Cellular Metabolic Activity (PC3 cells [1]; 20 μM fatty acid): 109 ± 2.7%
Cellular Metabolic Activity (PC3 cells [1]; 40 μM fatty acid): 108 ± 0.9%
Cellular Metabolic Activity (PC3 cells [1]; 60 μM fatty acid): 111 ± 2.2%
Cellular Metabolic Activity (PC3 cells [1]; 80 μM fatty acid): 110 ± 2.2%
Cellular Metabolic Activity (PC3 cells [1]; 100 μM fatty acid): 111 ± 2.0%

CCCCCC[C@@H](O)C/C=C\CCCCCCCC(=O)O [RA, Ricinoleic acid]
Cellular Metabolic Activity (PC3 cells [1]; 20 μM fatty acid): 91 ± 6.0%
Cellular Metabolic Activity (PC3 cells [1]; 40 μM fatty acid): 94 ± 4.7%
Cellular Metabolic Activity (PC3 cells [1]; 60 μM fatty acid): 90 ± 6.2%
Cellular Metabolic Activity (PC3 cells [1]; 80 μM fatty acid): 90 ± 6.0%
Cellular Metabolic Activity (PC3 cells [1]; 100 μM fatty acid): 94 ± 3.1%
